This passage reports IC50 results from ChEMBL document CHEMBL5604062, “ASAP - ZIKV NS2B-NS3 protease fluorescence dose response” (2024).

In this assay the target is Nonstructural protein 3 (Zika virus, UniProt A0A024AXB9). As to the kind of experiment: Functional biochemical assay to identify treatments for viral infectious disease that targets Zika NS2B-NS3 protease. Utilizing a direct enzyme activity measurement method, reading the fluorescence intensity is used to characterize the relative potency of inhibitors as IC50. The arrangement: species or system PRVABC59.
Nonstructural protein 3, sequence (A0A024AXB9 whole entry): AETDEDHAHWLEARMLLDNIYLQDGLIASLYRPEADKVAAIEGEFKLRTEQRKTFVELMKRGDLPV

As usually defined, the IC50 is the concentration that inhibits the measured activity by half.

Structures are written as SMILES.

The molecule `NCCCc1cccc(NC(=O)c2cc(Cl)cc(NC(=O)OCc3ccccc3)c2)n1` registered an IC50 of 19 µM.
The same measure for `CC(=O)N1CCC([C@H](NC(=O)OCc2ccccc2)C(=O)Nc2cccc(CN)c2)CC1`: more than 99.5 µM; for `NCc1cccc(NC(=O)c2cc(NC(=O)OCc3ccccc3)ccc2C(F)(F)F)c1`: more than 99.5 µM.
`N#Cc1csc(CN2CCC([C@H](NC(=O)OCc3ccccc3)C(=O)Nc3cccc(CN)c3)CC2)c1` registered a 50% inhibitory concentration (IC50) of more than 99.5 µM.
The same measure for `NCc1cccc(NC(=O)[C@H](NC(=O)OCc2ccccc2)C2CCN(C(=O)[C@H]3C[C@H](O)C3)CC2)c1`: more than 99.5 µM; for `Cn1ccc(COc2ccc([C@@H](NC(=O)OCc3ccccc3)C(=O)Nc3cccc(CN)c3)cc2)n1`: more than 99.5 µM; for `FC(F)(F)Oc1cc(Cl)cc2c(CN3CCC(c4cscn4)CC3)c[nH]c12`: more than 99.5 µM.
For `Cn1nc2c(c1NC(=O)c1cc(Cl)cc(NC(=O)OCc3ccccc3)c1)CCNC2` the value was more than 99.5 µM; for `N#CC1(S(=O)(=O)N2CCC([C@H](NC(=O)OCc3ccccc3)C(=O)Nc3cccc(CN)c3)CC2)CCC1`, 97.6 µM; for `NCc1cccc(NC(=O)c2cc(Cl)cc(OC3CC3)c2)c1`, 20.6 µM.
For `NCc1cccc(NC(=O)c2cc(Cl)cc(N3CCCC3)c2)c1` the value was 12 µM; for `CCCCSc1ccc(Cl)cc1C(=O)Nc1cccc(CN)c1`, 22.3 µM.
Regarding `NCc1cccc(NC(=O)c2cc(NC(=O)OCc3ccccc3)cc3c2OCCO3)c1`, 89.6 µM corresponded to half-maximal inhibition (IC50).
The same measure for `O=C(Nc1cc(Cl)cc(C(=O)NCC2(CO)CCNCC2)c1)OCc1ccccc1`: more than 99.5 µM; for `NCc1cccc(NC(=O)[C@H](NC(=O)OCc2ccccc2)C2CCN(C(=O)C3CCOCC3)CC2)c1`: more than 99.5 µM; for `CNCCS(=O)(=O)N1CCC([C@H](NC(=O)OCc2ccccc2)C(=O)Nc2cccc(CN)c2)CC1`: more than 99.5 µM.
For `O=C(Nc1cc(Cl)cc(C(=O)Nc2ccc3c(c2)[C@H]2CC[C@H]3N2)c1)OCc1ccccc1` the value was 23.9 µM; for `CSc1cc(F)c(C(=O)Nc2cccc(CN)c2)cc1NC(=O)OCc1ccccc1`, 83.6 µM.
The same measure for `NCc1cccc(NC(=O)[C@@H](NC(=O)OCc2ccccc2)C2CCN(C(=O)c3cscn3)CC2)c1`: more than 99.5 µM; for `CCOCC(=O)N1CCC([C@H](NC(=O)OCc2ccccc2)C(=O)Nc2cccc(CN)c2)CC1`: more than 99.5 µM; for `NCc1cccc(NC(=O)[C@@H](NC(=O)OCc2ccccc2)c2ccc(OCC3CCOCC3)cc2)c1`: 95.5 µM.
`NCc1cccc(NC(=O)[C@H](NC(=O)OCc2ccccc2)C2CCN(C3CCCC3)CC2)c1` yielded a half-inhibitory concentration (IC50) of more than 99.5 µM.
The same measure for `CCN(C)S(=O)(=O)N1CCC([C@H](NC(=O)OCc2ccccc2)C(=O)Nc2cccc(CN)c2)CC1`: more than 99.5 µM; for `O=C(Cn1ccnc(N2CC[C@H](CO)C2)c1=O)NCc1ccsc1`: more than 99.5 µM.
The same measure for `CC(C)CC(=O)N1CCC([C@H](NC(=O)OCc2ccccc2)C(=O)Nc2cccc(CN)c2)CC1`: more than 99.5 µM; for `NCc1cccc(NC(=O)c2cc(Cl)ccc2-n2cncn2)c1`: 17.7 µM; for `COCCOc1ccc(Cl)cc1C(=O)Nc1cccc(CN)c1`: 77.5 µM.
For `CC(C)N1CCC([C@H](NC(=O)OCc2ccccc2)C(=O)Nc2cccc(CN)c2)CC1` the value was more than 99.5 µM; for `Cn1nnc(S(=O)(=O)N2CCC([C@H](NC(=O)OCc3ccccc3)C(=O)Nc3cccc(CN)c3)CC2)n1`, more than 99.5 µM.
The molecule `NCc1cccc(NC(=O)[C@H](NC(=O)OCc2ccccc2)C2CCN(S(=O)(=O)c3ccccc3)CC2)c1` displayed a half-inhibitory concentration (IC50) of more than 99.5 µM.
The same measure for `NCCc1nsc(NC(=O)c2cc(Cl)cc(NC(=O)OCc3ccccc3)c2)n1`: more than 99.5 µM; for `CN(C)Cc1cccc(C(=O)Nc2cccc(CN)c2)c1`: 23.8 µM.
For `Cc1nnc(CN2CCC([C@H](NC(=O)OCc3ccccc3)C(=O)Nc3cccc(CN)c3)CC2)s1` the value was more than 99.5 µM; for `COCc1cc(Cl)cc(C(=O)Nc2cccc(CN)c2)c1`, 26.9 µM; for `NCc1cccc(NS(=O)(=O)c2cc(Cl)cc(NC(=O)OCc3ccccc3)c2)c1`, more than 99.5 µM.
The same measure for `Cn1nc(CCN)nc1NC(=O)c1cc(Cl)cc(NC(=O)OCc2ccccc2)c1`: 31.3 µM; for `NCCCc1ccc(F)c(NC(=O)c2cc(Cl)cc(NC(=O)OCc3ccccc3)c2)c1`: 6.27 µM.
As for `Cc1cc(CN)cc(NC(=O)c2cc(Cl)cc(NC(=O)OCc3ccccc3)c2)c1`, half-maximal inhibition (IC50) required 5.16 µM.
The same measure for `CC(C)OC(=O)Nc1cc(Cl)cc(C(=O)Nc2cccc(CN)c2)c1`: 2.46 µM; for `C[C@H](N)c1cccc(NC(=O)c2cc(Cl)cc(NC(=O)OCc3ccccc3)c2)c1`: 13.7 µM; for `NC[C@H]1C[C@@H](CNC(=O)c2cc(Cl)cc(NC(=O)OCc3ccccc3)c2)CCO1`: more than 99.5 µM.
For `NC12CCC(CNC(=O)c3cc(Cl)cc(NC(=O)OCc4ccccc4)c3)(CC1)OC2` the value was 33.1 µM; for `Clc1ccc(-c2cc(CN3CCC(c4cscn4)CC3)[nH]n2)cc1`, more than 99.5 µM; for `CCS(=O)(=O)c1ccc(Cl)cc1C(=O)Nc1cccc(CN)c1`, 82.1 µM.
The same measure for `Cn1cc(C(=O)N2CCC([C@H](NC(=O)OCc3ccccc3)C(=O)Nc3cccc(CN)c3)CC2)cn1`: more than 99.5 µM; for `Cn1nc([C@@H]2CCCN2)nc1NC(=O)c1cc(Cl)cc(NC(=O)OCc2ccccc2)c1`: more than 99.5 µM.
In turn, `O=C(Nc1cc(Cl)cc(C(=O)NC[C@H]2CC3(CNC3)CO2)c1)OCc1ccccc1` registered an IC50 of 46.1 µM.
On to `CC(C)(C#N)CS(=O)(=O)N1CCC([C@H](NC(=O)OCc2ccccc2)C(=O)Nc2cccc(CN)c2)CC1`, for which the IC50 is more than 99.5 µM.
The same measure for `NCCCc1ccnc(NC(=O)c2cc(Cl)cc(NC(=O)OCc3ccccc3)c2)c1`: 18.4 µM; for `C[C@@]1(CNC(=O)c2cc(Cl)cc(NC(=O)OCc3ccccc3)c2)CNCCOC1`: more than 99.5 µM.
With `NCc1cccc(NC(=O)[C@H](NC(=O)OCc2ccccc2)c2ccc(OCc3ccncn3)cc2)c1`, half-maximal inhibition (IC50) was put at 83 µM.
The same measure for `Cn1ccnc1COc1cccc([C@H](NC(=O)OCc2ccccc2)C(=O)Nc2cccc(CN)c2)c1`: more than 99.5 µM.
The same measure for `O=c1ccc(N2CCN(Cc3c[nH]c4ccccc34)CC2)n[nH]1`: more than 99.5 µM; for `NCc1cccc(NC(=O)c2cc(Cl)cc(C3CC3)c2)c1`: 8.27 µM; for `Cc1nnc(S(=O)(=O)N2CCC([C@H](NC(=O)OCc3ccccc3)C(=O)Nc3cccc(CN)c3)CC2)s1`: more than 99.5 µM.
For `O=C(Cn1ccnc(N2CC[C@H](CO)C2)c1=O)NCc1cccs1` the value was more than 99.5 µM.
As to `NCc1cccc(NC(=O)c2cc(Cl)cc(N3CCCC3=O)c2)c1`, the IC50 worked out at 11.5 µM.
For `Cc1c(CN)cccc1NC(=O)c1cc(Cl)cc(NC(=O)OCc2ccccc2)c1` the value was 44.7 µM.
For `CN1CCC(COc2cccc([C@H](NC(=O)OCc3ccccc3)C(=O)Nc3cccc(CN)c3)c2)CC1` the value was 87.6 µM; for `O=C(Nc1cc(Cl)cc(C(=O)NCc2n[nH]c3c2CNCC3)c1)OCc1ccccc1`, more than 99.5 µM; for `NCc1cccc(NC(=O)c2cc(Cl)cc3c2OCCNC3)c1`, 45.2 µM.
In the case of `Oc1cc(N2CCN(Cc3c[nH]c4ccccc34)CC2)ccn1`, the IC50 is more than 99.5 µM.
The molecule `Cc1cccc(CNc2ccc(Cl)cc2C(=O)Nc2cccc(CN)c2)n1` displayed an IC50 of more than 99.5 µM.
The same measure for `NCc1cccc(NC(=O)[C@@H](NC(=O)OCc2ccccc2)C2CCN(Cc3ccncc3)CC2)c1`: more than 99.5 µM.
`O=C(Nc1cc(Cl)cc(C(=O)Nc2cccc3c2CNC3)c1)OCc1ccccc1`: the IC50 came out at 75.6 µM.
The same measure for `CN(C)Cc1csc(NC(=O)c2cc(Cl)cc(NC(=O)OCc3ccccc3)c2)n1`: more than 99.5 µM.
The same measure for `NCc1cccc(NC(=O)c2nc(=O)cc(NC(=O)OCc3ccccc3)[nH]2)c1`: more than 99.5 µM; for `NCc1cccc(NC(=O)[C@H](NC(=O)OCc2ccccc2)c2ccc(OCCc3cscn3)cc2)c1`: 79.5 µM; for `NCc1ccc(O)c(NC(=O)c2cc(Cl)cc(NC(=O)OCc3ccccc3)c2)c1`: 18.1 µM.
The same measure for `Cc1nccn1-c1ccc(Cl)cc1C(=O)Nc1cccc(CN)c1`: more than 99.5 µM; for `CN(C)Cc1cc(NC(=O)[C@H](NC(=O)OCc2ccccc2)c2ccc(OCc3ccccc3)cc2)sn1`: more than 99.5 µM.
Turning to `NCc1ccccc1Oc1ccc(S(=O)(=O)Nc2ccc(Cl)cc2C(=O)NCC(F)(F)F)cc1`, the IC50 was more than 99.5 µM.
For `Cn1ccnc1C(=O)N1CCC([C@H](NC(=O)OCc2ccccc2)C(=O)Nc2cccc(CN)c2)CC1` the value was more than 99.5 µM.
For `CN(C)CCOc1ccc(Cl)cc1C(=O)Nc1cccc(CN)c1` the value was 25.6 µM; for `O=C(Nc1cc(Cl)cc(C(=O)NC[C@H]2CNC3(CC3)CO2)c1)OCc1ccccc1`, more than 99.5 µM; for `O=C(Nc1cc(Cl)cc(C(=O)Nc2nccn2C2CNC2)c1)OCc1ccccc1`, more than 99.5 µM.
For `Cc1ccc(NC(=O)c2cc(Cl)cc(NC(=O)OCc3ccccc3)c2)cc1CN` the value was 10.9 µM; for `CCc1ccc([C@@H](CC(=O)Nc2cccc(CN)c2)NC(=O)OCc2ccccc2)cc1Br`, 12.1 µM; for `CCCCS(=O)(=O)N1CCC([C@H](NC(=O)OCc2ccccc2)C(=O)Nc2cccc(CN)c2)CC1`, more than 99.5 µM.
The molecule `CSc1cc(Cl)cc(C(=O)Nc2cccc(CN)c2)c1` returned an IC50 of 10.4 µM.
On to `CN1C(=O)C[C@H](C(=O)Nc2cccc(CN)c2)[C@H]1c1ccc(Cl)c(Cl)c1`, for which the IC50 was more than 99.5 µM.
As to `NCc1cccc(NC(=O)c2cc(Cl)ccc2OCC(F)(F)F)c1`, the midpoint of inhibition, the IC50, lay at 55.5 µM.
In the case of `NCc1cccc(NC(=O)[C@H](NC(=O)OCc2ccccc2)C2CCN(CCc3ccccc3)CC2)c1`, the IC50 is more than 99.5 µM.
For `NC[C@]1(F)C[C@@H](NC(=O)c2cc(Cl)cc(NC(=O)OCc3ccccc3)c2)C1` the value was 68.6 µM.
`Cn1ncc(CN2CCC([C@H](NC(=O)OCc3ccccc3)C(=O)Nc3cccc(CN)c3)CC2)n1` yielded an IC50 of more than 99.5 µM.
For `NCc1cccc(NC(=O)[C@H](NC(=O)OCc2ccccc2)c2cccc(OCCn3cccn3)c2)c1` the value was more than 99.5 µM; for `NCc1cccc(NC(=O)c2cc(Cl)cc3c2CCC3)c1`, 5.98 µM.
